PMC7441487 (mBio, 2020)
“Also recorded” adds a separate entry of the source. Where two headings read alike, the source gives them in different places.

How the values were obtained:
[1] = Cytotoxicity, WST-8 assay (Cell Counting Kit-8); assay type: cell-based; details: African green monkey, VeroE6 cells
SARS-CoV-2^WK-521 [2] = test: Immunocytochemistry, high-stringency assay (VeroE6^TMPRSS2 cells and SARS-CoV-2^WK-521); assay type: cell-based; details: VeroE6^TMPRSS2 cells; for Observation by immunocytochemistry: 100 μM; for Block of infectivity and cytopathic effect of SARS-CoV-2^WK-521 (immunocytochemistry): overall statement, Fig. 3B; for Antiviral effect seen by immunocytochemistry: 1 and 10 μM
SARS-CoV-2^WK-521 [3] = test: Antiviral assay: viral RNA in culture supernatants by RNA-qPCR (RT-qPCR), VeroE6 cells; assay type: cell-based; details: for Selectivity index: ratio of CC50 to EC50, VeroE6 cells
SARS-CoV-2^WK-521 [4] = test: Immunocytochemistry, low-stringency assay (VeroE6 cells and SARS-CoV-2^WK-521); assay type: cell-based; details: VeroE6 cells; for Block of SARS-CoV-2^WK-521 infection (immunocytochemistry): overall statement over the concentrations tested
SARS-CoV-2 M^pro = SARS-CoV-2 M^pro (Severe acute respiratory syndrome coronavirus 2, UniProt P0DTD1); test: M^pro molecular weight analysis with HPLC/MS (covalent binding); details: 100 μM compound, 37°C, 30 min
VeroE6 cells = test: Cytotoxicity, WST-8 assay (Cell Counting Kit-8); assay type: cell-based; details: concentrations up to 100 μM
SARS-CoV-2^WK-521 [5] = details: VeroE6 cells; 100 μM; 3 days
SARS-CoV-2 = details: Calu-3 cells exposed to SARS-CoV-2; cited from earlier work
HIV-1 protease = HIV-1 protease (Human immunodeficiency virus type 1 group M subtype B, UniProt P04585); test: Thermal stability of HIV-1 protease by differential scanning fluorimetry (control); assay type: binding; details: HIV-1 protease 5 μM + 5 μM compound (1:1); protease alone 54.78°C
[6] = Severe acute respiratory syndrome coronavirus 2, Vero C1008, read-out: EC50 ±SD

## C=CCn1ccc2c(C(=O)Oc3cncc(Cl)c3)cccc21 [GRL-0820]
[1]
  CC50 at 3 days: > 100 µM
SARS-CoV-2^WK-521 [2]
  Observation by immunocytochemistry: viral breakthrough had occurred
  Block of infectivity and cytopathic effect of SARS-CoV-2^WK-521 (immunocytochemistry): potently blocked; also recorded: permitted viral breakthrough
SARS-CoV-2^WK-521 [3]; Severe acute respiratory syndrome coronavirus 2, Vero C1008, read-out: Anti-SARS-CoV-2 EC50
  EC50: 15 ± 18 µM
SARS-CoV-2^WK-521 [3]; [6]
  EC50: 23 ± 5 µM
SARS-CoV-2^WK-521 [3]
  Selectivity index: >4.3
SARS-CoV-2^WK-521 [4]
  Block of SARS-CoV-2^WK-521 infection (immunocytochemistry): permitted viral breakthrough
SARS-CoV-2 M^pro
  Increase of the mass of M^pro: 183.85 amu
SARS-CoV-2 M^pro; TOF MS
  Average mass of the major M^pro species with compound: 34,037.21

## NC(=O)c1nc(F)c[nH]c1=O [Favipiravir, favipiravir]
VeroE6 cells
  Cytotoxicity (in words): nontoxic at all concentrations tested
[1]
  CC50 at 3 days: > 100 µM
SARS-CoV-2^WK-521 [2]
  Block of infectivity and cytopathic effect of SARS-CoV-2^WK-521 (immunocytochemistry): failed to block the infection
SARS-CoV-2^WK-521 [3]; [6]
  EC50: > 100 µM
SARS-CoV-2^WK-521 [4]
  Block of SARS-CoV-2^WK-521 infection (immunocytochemistry): failed to block SARS-CoV-2 infection

## CCN(CC)CCCC(C)Nc1ccnc2cc(Cl)ccc12 (stereo not drawn) [Chloroquine, chloroquine]
SARS-CoV-2^WK-521 [4]; 10 μM
  Observation by immunocytochemistry: slightly block infectivity
SARS-CoV-2^WK-521 [4]; 100 μM
  Observation by immunocytochemistry: almost all the cells were shed from the wells
SARS-CoV-2^WK-521 [4]; 100 μM, listed as chloroquine
  Observation by immunocytochemistry: almost all VeroE6 cells were lost
SARS-CoV-2^WK-521 [4]
  Block of SARS-CoV-2^WK-521 infection (immunocytochemistry): failed to block the infectivity

## O=C(Oc1cncc(Cl)c1)c1cccc2[nH]ccc12 [GRL-0920]
[1]
  CC50 at 3 days: > 100 µM
SARS-CoV-2^WK-521 [5]
  Protection of virus-exposed cells (light microscopy): appeared to be protected
SARS-CoV-2^WK-521 [2]
  Observation by immunocytochemistry: essentially no infected cells seen
  Block of infectivity and cytopathic effect of SARS-CoV-2^WK-521 (immunocytochemistry): potently blocked; also recorded: completely blocked
SARS-CoV-2^WK-521 [3]; [6]
  EC50: 8.6 ± 2.8 µM
SARS-CoV-2^WK-521 [4]; 10 μM
  Observation by immunocytochemistry: further suppression of viral replication
SARS-CoV-2^WK-521 [4]; 100 μM
  Observation by immunocytochemistry: completely blocked; also recorded: complete
SARS-CoV-2^WK-521 [4]
  Block of SARS-CoV-2^WK-521 infection (immunocytochemistry): completely blocked the infectivity

## Cc1cccc(C)c1OCC(=O)N[C@@H](Cc1ccccc1)[C@@H](O)C[C@H](Cc1ccccc1)NC(=O)[C@H](C(C)C)N1CCCNC1=O [Lopinavir, lopinavir]
[1]
  CC50 at 3 days: 51 ± 5 µM
SARS-CoV-2^WK-521 [2]
  Observation by immunocytochemistry: most of the cells were lost
  Antiviral effect seen by immunocytochemistry: no detectable antiviral activity
  Block of infectivity and cytopathic effect of SARS-CoV-2^WK-521 (immunocytochemistry): failed to block the infection
SARS-CoV-2^WK-521 [3]; [6]
  EC50: 19 ± 8 µM
SARS-CoV-2^WK-521 [3]
  Selectivity index: 2.7
SARS-CoV-2^WK-521 [4]
  Block of SARS-CoV-2^WK-521 infection (immunocytochemistry): failed to block SARS-CoV-2 infection

## Cc1c(O)cccc1C(=O)N[C@@H](CSc1ccccc1)[C@H](O)CN1C[C@H]2CCCC[C@H]2C[C@H]1C(=O)NC(C)(C)C [Nelfinavir, nelfinavir]
[1]
  CC50 at 3 days: 53 ± 8 µM
SARS-CoV-2^WK-521 [2]
  Observation by immunocytochemistry: most of the cells were lost
  Antiviral effect seen by immunocytochemistry: no detectable antiviral activity
  Block of infectivity and cytopathic effect of SARS-CoV-2^WK-521 (immunocytochemistry): failed to block the infection
SARS-CoV-2^WK-521 [3]; [6]
  EC50: 3.1 µM
SARS-CoV-2^WK-521 [3]
  Selectivity index: 17
SARS-CoV-2^WK-521 [4]
  Block of SARS-CoV-2^WK-521 infection (immunocytochemistry): failed to block SARS-CoV-2 infection

## CC(=O)Oc1ccccc1C(=O)Nc1ncc([N+](=O)[O-])s1 [Nitazoxanide, nitazoxanide]
[1]
  CC50 at 3 days: 88 ± 3 µM
SARS-CoV-2^WK-521 [3]; [6]
  EC50: 31 ± 6 µM
SARS-CoV-2^WK-521 [3]
  Selectivity index: 2.8
SARS-CoV-2^WK-521 [4]; 100 μM
  Observation by immunocytochemistry: only a few nuclei remained
SARS-CoV-2^WK-521 [4]; 1 and 10 μM
  Observation by immunocytochemistry: did not exert activity against the virus
SARS-CoV-2^WK-521 [4]
  Block of SARS-CoV-2^WK-521 infection (immunocytochemistry): did not block the infectivity

## CCC(CC)COC(=O)[C@H](C)N[P@](=O)(OC[C@H]1O[C@@](C#N)(c2ccc3c(N)ncnn23)[C@H](O)[C@@H]1O)Oc1ccccc1 [Remdesivir, remdesivir]
[1]
  CC50 at 3 days: > 100 µM
SARS-CoV-2^WK-521 [5]
  Protection of virus-exposed cells (light microscopy): appeared to be protected
SARS-CoV-2^WK-521 [2]
  Observation by immunocytochemistry: essentially no infected cells seen
  Block of infectivity and cytopathic effect of SARS-CoV-2^WK-521 (immunocytochemistry): potently blocked; also recorded: permitted viral breakthrough
SARS-CoV-2^WK-521 [3]; [6]
  EC50: 1.2 ± 0.06 µM
SARS-CoV-2^WK-521 [3]
  Selectivity index: >83
SARS-CoV-2^WK-521 [4]; 10 μM
  Observation by immunocytochemistry: further suppression of viral replication
SARS-CoV-2^WK-521 [4]; 100 μM
  Observation by immunocytochemistry: nearly complete
SARS-CoV-2^WK-521 [4]
  Block of SARS-CoV-2^WK-521 infection (immunocytochemistry): significantly blocked SARS-CoV-2 infection but allowed viral breakthrough

## CCN(CCO)CCCC(C)Nc1ccnc2cc(Cl)ccc12 (stereo not drawn) [Hydroxychloroquine, hydroxychloroquine]
VeroE6 cells
  Cytotoxicity (in words): nontoxic at up to 100 μM
[1]
  CC50 at 3 days: > 100 µM
SARS-CoV-2^WK-521 [3]; [6]
  EC50: 5.1 ± 3.4 µM
SARS-CoV-2^WK-521 [3]
  Selectivity index: >20
SARS-CoV-2^WK-521 [4]; 10 μM
  Observation by immunocytochemistry: slightly block infectivity
SARS-CoV-2^WK-521 [4]; 100 μM
  Observation by immunocytochemistry: almost all the cells were shed from the wells; also recorded: virtually no cells were left
SARS-CoV-2^WK-521 [4]
  Block of SARS-CoV-2^WK-521 infection (immunocytochemistry): did not exert significant antiviral activity; also recorded: failed to block the infectivity

## N=C(N)c1ccc2cc(OC(=O)c3ccc(N=C(N)N)cc3)ccc2c1 [Nafamostat, nafamostat]
VeroE6 cells
  Cytotoxicity (in words): nontoxic at all concentrations tested
[1]
  CC50 at 3 days: > 100 µM
SARS-CoV-2
  EC50: 0.005 µM
SARS-CoV-2^WK-521 [4]
  Cytotoxicity seen in immunocytochemistry: did not exert significant toxicity; also recorded: not significantly cytotoxic
  Block of SARS-CoV-2^WK-521 infection (immunocytochemistry): inactive against the virus
SARS-CoV-2^WK-521 [4]; listed as nafamostat
  Block of SARS-CoV-2^WK-521 infection (immunocytochemistry): did not exert significant antiviral activity; also recorded: failed to block SARS-CoV-2 infection

## CC(C)CN(C[C@@H](O)[C@H](Cc1cc(F)cc(F)c1)NC(=O)O[C@H]1C2COC3OCC1C3C2)S(=O)(=O)c1ccc2nc(NC3CC3)sc2c1 (stereo partly drawn) [GRL-142]
HIV-1 protease
  Tm of HIV-1 protease: 87.13 °C
